Reference: PubChem BioAssay (NCI)
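Step 1: Grow cells in 96-well plates. Step 2: Expose to compound for 48 hours at 5 concentrations. Step 3: Interpolate endpoints linearly; if unreached, use highest concentration. GI50 = concentration required for 50% inhibition of growth. TGI marks complete inhibition of growth.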

Key:
Assay in all cases: NCI anticancer screen, dose series, 48 h
[1] = tested on: CAKI-1 renal
[2] = tested on: HCT-15 colon
[3] = tested on: HOP-62 NSCLC
[4] = tested on: HT29 colon
[5] = tested on: MCF7 breast
[6] = tested on: MOLT-4 leukemia
[7] = tested on: NCI-H226 lung
[8] = tested on: PC-3 prostate
[9] = tested on: MDA-N

| SMILES | GI50 [1] | TGI [1] | GI50 [2] | TGI [2] | GI50 [3] | TGI [3] | GI50 [4] | TGI [4] | GI50 [5] | TGI [5] | GI50 [6] | TGI [6] | GI50 [7] | TGI [7] | GI50 [8] | TGI [8] | TGI [9] |
| --- | --- | --- | --- | --- | --- | --- | --- | --- | --- | --- | --- | --- | --- | --- | --- | --- | --- |
| COc1ccc(-c2nsc3c2NC(=O)CC3c2cccc(OC)c2)cc1 (centres undefined) | 1.38 µM | > 100 µM | 0.527 µM | > 100 µM | 2.41 µM | 33.9 µM | 0.427 µM | > 100 µM | 0.55 µM | > 100 µM | 2.18 µM | > 100 µM | 17.5 µM | > 100 µM | 2.45 µM | > 100 µM | – |
| C=CCc1ccc(O)c(-c2ccc(O)c(CC=C)c2)c1 | 14.1 µM | 29.4 µM | 16.5 µM | 33.7 µM | 20 µM | 39.8 µM | 23.3 µM | 53.8 µM | 8.06 µM | 26.2 µM | 4.94 µM | > 39.9 µM | 18.4 µM | 36.9 µM | 15.2 µM | 33.2 µM | – |
| CN(C)c1ccc(N=Nc2ccccn2)c(O)c1 | 0.344 µM | > 100 µM | 0.112 µM | > 100 µM | 0.311 µM | > 54 µM | 0.415 µM | > 100 µM | 0.271 µM | > 100 µM | 0.243 µM | > 87.8 µM | 0.515 µM | 8.67 µM | 0.416 µM | > 100 µM | – |
| CCc1ccc(/C=C/c2ccc(O)c3ncccc23)[n+](C)c1 | 39.2 µM | > 100 µM | 40.9 µM | > 100 µM | – | > 100 µM | > 29.3 µM | > 100 µM | 7.99 µM | > 90.7 µM | 3.72 µM | > 100 µM | > 22.4 µM | > 100 µM | 6.09 µM | > 100 µM | – |
| O=C1CCC/C=C\C[C@H]2C=CC(=O)/C2=C/C[C@H](C/C=C\CC(F)(F)F)O1 | 0.417 µM | 1.28 µM | 0.316 µM | 0.867 µM | 0.333 µM | 0.757 µM | 0.352 µM | 0.696 µM | 0.336 µM | 3.16 µM | 0.984 µM | 7.51 µM | 0.382 µM | 1.01 µM | 0.574 µM | 2.71 µM | – |
| S=c1[nH]c2c(Cl)c(Cl)c(Cl)c(Cl)c2[nH]1 | – | 64.7 µM | – | 53.5 µM | – | 80.2 µM | – | 48.1 µM | – | 40.5 µM | – | 78 µM | – | – | – | 77.6 µM | 51.4 µM |
| C[C@@]12CCC[C@@](C)(C(=O)O)C1CC[C@]13CC(=O)[C@](CO)(C1)[C@@H](O)CC32 (some centres undefined) | > 100 µM | > 100 µM | > 100 µM | > 100 µM | > 100 µM | > 100 µM | > 100 µM | > 100 µM | > 100 µM | > 100 µM | > 100 µM | > 100 µM | > 100 µM | > 100 µM | > 100 µM | > 100 µM | – |
| Nc1c(C(=O)c2ccccc2)cnn1-c1ccc(F)cc1 | > 25 µM | > 25 µM | > 25 µM | > 25 µM | > 25 µM | > 25 µM | > 25 µM | > 25 µM | > 25 µM | > 25 µM | > 25 µM | > 25 µM | > 25 µM | > 25 µM | > 25 µM | > 25 µM | – |
